Columns and labels:
Assay type in all cases: cell-based
[1] = tested on: OVCAR-3; assay: MTT cytotoxicity test, OVCAR-3; conditions: 24 h
From the text: (§1) In this test, […] present in the cells converts the soluble tetrazolium salt (3-4,5-dimethylthiazol-2-yl)-2,5-diphenyltetrazolium bromide) into a reduced form. The reaction yields water-insoluble purple crystalline formazan. The number of crystals formed depends on the enzyme activity so that it is directly proportional to the number of viable cells in the sample. Spectrophotometric measurement requires the use of an organic solvent to dissolve the crystals obtained (isopropanol). The change in colour intensity is measured by spectrophotometry at 570 nm wavelength. The test was performed for a number of dilutions (9) of nanoparticle solutions containing the tested anthracycline. The baseline concentration of nanoparticles for MTT tests was 2.5 mg of nanoparticles/ml. […] The study was also performed for drug-free nanoparticles (the carrier itself was obtained similarly to the nanoparticles with the drug). Cells not exposed to toxic substances were used as a control for toxicity studies.
(§2) After reaching 85-90% confluence, the cells were trypsinised using a 0.25% trypsin solution. The cells were then centrifuged (1200 rpm, 5 min.) and suspended in a culture medium suitable for a particular cell line. […] The cells were plated at a concentration of 1000 cells/100 μl of medium per culture well (96-well plates). The prepared plates were incubated (37° C./5% CO2/22 h to 26 h). Subsequently, the culture medium was replaced with a fresh one (100 μl) containing the appropriate concentration of the tested nanoparticles and set aside for 24 h (37° C./5% CO2). After the lapse of the test time, the medium was removed and replaced with 50 μl of an MTT reagent solution at a concentration of 1 mg/ml. The plate was incubated for 2 hours (37° C./5% CO2). Subsequently, the MTT solution was removed, and 100 μl of isopropanol was added. […] The mean value of absorbance read OD570 of the cells not exposed to a toxic agent (control) should be above 0.7 [see literature item 206].
(§3) A decrease in the number of viable cells causes a decrease in metabolic activity in the sample. This reduction directly correlates with the amount of blue and purple formazan formed, monitored basing on the optical density at 570 nm. The following equation (C.1) is used to calculate viability reduction compared to control:
(§4) where: • OD570e is the mean value of the measured absorbance of the test samples; • OD570b is the mean value of the measured absorbance of the control.
(§5) The results obtained were statistically analysed using the Dixon Q test.

[2] = tested on: A2780; assay: MTT cytotoxicity test, A2780; conditions: 24 h
From the text: as §1, §2, §3, §4, §5

[3] = tested on: COLO 205; assay: MTT cytotoxicity test, COLO 205; conditions: 24 h
From the text: as §1, §2, §3, §4, §5

[4] = tested on: A549; assay: MTT cytotoxicity test, A549; conditions: 24 h
From the text: as §1, §2, §3, §4, §5

[5] = tested on: ACHN; assay: MTT cytotoxicity test, ACHN; conditions: 24 h
From the text: as §1, §2, §3, §4, §5

[6] = tested on: HeLa cell line; assay: MTT cytotoxicity test, HeLa; conditions: 24 h
From the text: (§6) In this test, […] present in the cells converts the soluble tetrazolium salt (3-4,5-dimethylthiazol-2-yl)-2,5-diphenyltetrazolium bromide) into a reduced form. The reaction yields water-insoluble purple crystalline formazan. The number of crystals formed depends on the enzyme activity so that it is directly proportional to the number of viable cells in the sample. Spectrophotometric measurement requires the use of an organic solvent to dissolve the crystals obtained (isopropanol). The change in colour intensity is measured by spectrophotometry at 570 nm wavelength. The test was performed for a number of dilutions (9) of nanoparticle solutions containing the tested anthracycline. The baseline concentration of nanoparticles for MTT tests was 2.5 mg of nanoparticles/ml. The results were compared to cytotoxicity results obtained for pure drugs with equimolar drug concentration (equal to the concentration encapsulated in nanoparticles). The study was also performed for drug-free nanoparticles (the carrier itself was obtained similarly to the nanoparticles with the drug). Cells not exposed to toxic substances were used as a control for toxicity studies.
(§7) After reaching 85-90% confluence, the cells were trypsinised using a 0.25% trypsin solution. The cells were then centrifuged (1200 rpm, 5 min.) and suspended in a culture medium suitable for a particular cell line. […] The cells were plated at a concentration of 1000 cells/100 μl of medium per culture well (96-well plates). The prepared plates were incubated (37° C./5% CO2/22 h to 26 h). Subsequently, the culture medium was replaced with a fresh one (100 μl) containing the appropriate concentration of the tested nanoparticles and set aside for 24 h (37° C./5% CO2). After the lapse of the test time, the medium was removed and replaced with 50 μl of an MTT reagent solution at a concentration of 1 mg/ml. The plate was incubated for 2 hours (37° C./5% CO2). Subsequently, the MTT solution was removed, and 100 μl of isopropanol was added. After shaking the plate on the shaker for 2 minutes, the results for 570 nm wavelength were read (reference value of 650 nm). The mean value of absorbance read OD570 of the cells not exposed to a toxic agent (control) should be above 0.7 [see literature item 206].
as §3, §4, §5

[7] = MTT cytotoxicity test, HeLa; conditions: human, HeLa cells; for viability at 24 h, 125000 ng/ml NPs (pure drug equimolar): 1.25E+05 ng/ml NPs (pure drug equimolar); for viability at 24 h, 25000 ng/ml NPs (pure drug equimolar): 2.50E+04 ng/ml NPs (pure drug equimolar); for viability at 24 h, 50000 ng/ml NPs (pure drug equimolar): 5.00E+04 ng/ml NPs (pure drug equimolar)
From the text: as §6, §7, §3, §4, §5

[8] = OVCAR3, 1.25E+05 ng/ml NPs (pure drug equimolar)
[9] = OVCAR3, 1.25E+06 ng/ml NPs (pure drug equimolar)
[10] = OVCAR3, 2.50E+04 ng/ml NPs (pure drug equimolar)
[11] = OVCAR3, 2.50E+05 ng/ml NPs (pure drug equimolar)
[12] = OVCAR3, 2.50E+06 ng/ml NPs (pure drug equimolar)
[13] = OVCAR3, 5.00E+04 ng/ml NPs (pure drug equimolar)
[14] = OVCAR3, 5.00E+05 ng/ml NPs (pure drug equimolar)
[15] = A2780, 1.25E+04 ng/ml NPs (pure drug equimolar)
[16] = A2780, 1.25E+05 ng/ml NPs (pure drug equimolar)
[17] = A2780, 1.25E+06 ng/ml NPs (pure drug equimolar)
[18] = A2780, 2.50E+04 ng/ml NPs (pure drug equimolar)
[19] = A2780, 2.50E+05 ng/ml NPs (pure drug equimolar)
[20] = A2780, 2.50E+06 ng/ml NPs (pure drug equimolar)
[21] = A2780, 5.00E+03 ng/ml NPs (pure drug equimolar)
[22] = A2780, 5.00E+04 ng/ml NPs (pure drug equimolar)
[23] = A2780, 5.00E+05 ng/ml NPs (pure drug equimolar)
[24] = Colo205, 1.25E+04 ng/ml NPs (pure drug equimolar)
[25] = Colo205, 1.25E+05 ng/ml NPs (pure drug equimolar)
[26] = Colo205, 1.25E+06 ng/ml NPs (pure drug equimolar)
[27] = Colo205, 2.50E+04 ng/ml NPs (pure drug equimolar)
[28] = Colo205, 2.50E+05 ng/ml NPs (pure drug equimolar)
[29] = Colo205, 2.50E+06 ng/ml NPs (pure drug equimolar)
[30] = Colo205, 5.00E+03 ng/ml NPs (pure drug equimolar)
[31] = Colo205, 5.00E+04 ng/ml NPs (pure drug equimolar)
[32] = Colo205, 5.00E+05 ng/ml NPs (pure drug equimolar)
[33] = A549, 1.25E+04 ng/ml NPs (pure drug equimolar)
[34] = A549, 1.25E+05 ng/ml NPs (pure drug equimolar)
[35] = A549, 1.25E+06 ng/ml NPs (pure drug equimolar)
[36] = A549, 2.50E+04 ng/ml NPs (pure drug equimolar)
[37] = A549, 2.50E+05 ng/ml NPs (pure drug equimolar)
[38] = A549, 2.50E+06 ng/ml NPs (pure drug equimolar)
[39] = A549, 5.00E+04 ng/ml NPs (pure drug equimolar)
[40] = 1.25E+04 ng/ml NPs (pure drug equimolar)
[41] = 1.25E+05 ng/ml NPs (pure drug equimolar)
[42] = 1.25E+06 ng/ml NPs (pure drug equimolar)
[43] = 2.50E+04 ng/ml NPs (pure drug equimolar)
[44] = 2.50E+05 ng/ml NPs (pure drug equimolar)
[45] = 5.00E+04 ng/ml NPs (pure drug equimolar)
[46] = 5.00E+05 ng/ml NPs (pure drug equimolar)
[47] = 2.50E+06 ng/ml NPs (pure drug equimolar)
[48] = 5.00E+03 ng/ml NPs (pure drug equimolar)

Which results are given for COc1cccc2c1C(=O)c1c(O)c3c(c(O)c1C2=O)C[C@@](O)(C(C)=O)C[C@@H]3O[C@H]1C[C@H](N)[C@H](O)[C@H](C)O1 [Dau, daunorubicin]?
Average viability ([1]; OVCAR3, 1.25E+04 ng/ml NPs (pure drug equimolar)): 3.616%; Average viability [1, 8]: 59.635%; Average viability [1, 9]: 94.253%; Average viability [1, 10]: 43.386%; Average viability [1, 11]: 71.147%; Average viability [1, 12]: 99.822%; Average viability ([1]; OVCAR3, 5.00E+03 ng/ml NPs (pure drug equimolar)): 1.330%; Average viability [1, 13]: 52.550%; Average viability [1, 14]: 120.518%; Average viability [2, 15]: 0.540%; Average viability [2, 16]: 18.312%; Average viability [2, 17]: 60.422%; Average viability [2, 18]: 3.689%; Average viability [2, 19]: 35.542%; Average viability [2, 20]: 54.259%; Average viability [2, 21]: 0.295%; Average viability [2, 22]: 11.600%; Average viability [2, 23]: 60.621%; Average viability [3, 24]: 34.20%; Average viability [3, 25]: 3.75%; Average viability [3, 26]: 5.07%; Average viability [3, 27]: 19.17%; Average viability [3, 28]: 3.47%; Average viability [3, 29]: 30.89%; Average viability [3, 30]: 30.89%; Average viability [3, 31]: 4.46%; Average viability [3, 32]: 2.93%; Average viability [4, 33]: 57.00%; Average viability [4, 34]: 49.55%; Average viability [4, 35]: 0.53%; Average viability [4, 36]: 55.31%; Average viability [4, 37]: 52.82%; Average viability [4, 38]: 65.72%; Average viability ([4]; A549, 5.00E+03 ng/ml NPs (pure drug equimolar)): 65.72%; Average viability [4, 39]: 50.80%; Average viability ([4]; A549, 5.00E+05 ng/ml NPs (pure drug equimolar)): 0.60%; Average viability [5, 40]: 43.86%; Average viability [5, 41]: 2.75%; Average viability [5, 42]: 5.35%; Average viability [5, 43]: 1.60%; Average viability [5, 44]: 2.24%; Average viability [5, 45]: 2.88%; Average viability [5, 46]: 3.02%; Average viability [6, 40]: 2.851%; Average viability [6, 42]: 107.342%; Average viability [6, 44]: 7.579%; Average viability [6, 47]: 111.366%; Average viability [6, 48]: 2.054%; Average viability [6, 46]: 28.287%; viability at 24 h, 125000 ng/ml NPs (pure drug equimolar) [7]: 7.89%; viability at 24 h, 25000 ng/ml NPs (pure drug equimolar) [7]: 2.11%; viability at 24 h, 50000 ng/ml NPs (pure drug equimolar) [7]: 4.14%

What does the source list for COc1cccc2c1C(=O)c1c(O)c3c(c(O)c1C2=O)C[C@@](O)(C(=O)CO)C[C@@H]3O[C@H]1C[C@H](N)[C@@H](O)[C@H](C)O1 [Epi, epirubicin]?
Average viability [1, 8]: 91.668%; Average viability [1, 9]: 58.803%; Average viability [1, 10]: 99.208%; Average viability [1, 11]: 88.222%; Average viability [1, 12]: 33.266%; Average viability [1, 13]: 92.151%; Average viability [1, 14]: 75.986%; Average viability [2, 15]: 90.784%; Average viability [2, 16]: 69.996%; Average viability [2, 17]: 14.869%; Average viability [2, 18]: 89.24%; Average viability [2, 19]: 58.252%; Average viability [2, 20]: 3.102%; Average viability [2, 21]: 95.203%; Average viability [2, 22]: 83.629%; Average viability [2, 23]: 41.752%; Average viability [3, 24]: 63.431%; Average viability [3, 25]: 55.748%; Average viability [3, 26]: 5.063%; Average viability [3, 27]: 66.212%; Average viability [3, 28]: 49.549%; Average viability [3, 29]: 2.239%; Average viability [3, 30]: 83.936%; Average viability [3, 31]: 61.427%; Average viability [3, 32]: 23.946%; Average viability [4, 33]: 95.631%; Average viability [4, 34]: 83.913%; Average viability [4, 35]: 29.508%; Average viability [4, 36]: 88.608%; Average viability [4, 37]: 75.153%; Average viability [4, 38]: 23.423%; Average viability [4, 39]: 74.693%; Average viability [5, 40]: 65.301%; Average viability [5, 41]: 63.237%; Average viability [5, 42]: 46.66%; Average viability [5, 43]: 63.713%; Average viability [5, 44]: 60.112%; Average viability [5, 47]: 32.352%; Average viability [5, 48]: 81.178%; Average viability [5, 45]: 59.828%; Average viability [5, 46]: 50.916%; Average viability [6, 40]: 98.38%; Average viability [6, 42]: 3.6%; Average viability [6, 44]: 14.93%; Average viability [6, 47]: 4.21%; Average viability [6, 48]: 100.18%; Average viability [6, 46]: 7.96%; viability at 24 h, 125000 ng/ml NPs (pure drug equimolar) [7]: 12.7%; viability at 24 h, 25000 ng/ml NPs (pure drug equimolar) [7]: 72.8%; viability at 24 h, 50000 ng/ml NPs (pure drug equimolar) [7]: 17%
